# Assay results: patent publication US20030125572A1, “Diester compounds of maleic acid (or fumaric acid)” (SENJU PHARMACEUTICAL CO., LTD., priority 1999, published 2003)
# Structures can show the parent of a compound that is named as a salt.
# Experiments:
# [1] = DPPH radical scavenging capacity; settings: for Radical scavenging capacity: DPPH, 20 min, absorbance at 517 nm
# Method: The Compound is tested for the radical scavenging capacity against the stabilized radical of 1,1-diphenyl-2-picrylhydro radicals (DPPH).
# The compound of Example 1 is dissolved in ethanol to the concentrations ranging from 10^−2 to 10^−5 M.
# The test is carried out in accordance with the procedure of Blois, M. S., Nature: 181, 1199 […].
# Added to 300 μl of a sample solution is 2.7 ml of a 0.011 mM ethanol solution of DPPH or a stabilized radical, and the solution is stirred and left on standing for 20 min., followed by measurement of absorbance at a wavelength of 517 nm. The radical scavenging rate of the sample solution is determined by the following equation:
# Radical scavenging rate (%)=(absorbance of control−absorbance of the sample solution[…])×100
# [2] = test system: mouse auricule inflammation; assay: Inflammation model of mouse auricule (PMA-induced edema); assay type: in vivo; settings: for Inhibition rate (%): auricule edematization, against control (methanol), 0.5% solution topically, 24 hours
# Method: The compound of Example 1 is dissolved in ethanol to the concentration of 0.5%.
# 6-Weeks aged male mice of ddy strain as procured from SLC CO. are subjected to the test.
# In order to cause inflammation, a solution (100 μg/mL) of phorbol 12-myristate 13-acetate (PMA) in acetone is applied in 10-μl portions (20 μl in total per mouse) onto the inside and outside of right-hand auricule of each mouse in such a manner that the solution may extend over the whole auricule. 24 Hours after causing inflammation, the thickness of right-hand auricule of each mouse is measured with use of a dial thickness gauge, and the edematization rate is calculated based on the thickness before causing inflammation.
# The test substance is applied in 10-μl portions (20 μl in total per mouse) onto the inside and outside of right-hand auricule of each mouse.
smiles,measurement,setting,value
"Cc1c(C)c2c(c(C)c1OC(=O)/C=C\C(=O)OC1=C(O)[C@@H]([C@@H](O)CO)OC1=O)CCC(C)(CCCC(C)CCCC(C)CCCC(C)C)O2 (stereo partly drawn) [Example 1, α-Tocopheryl L-Ascorbic Acid-2-O-Maleate (or Fumarate)]",IC50,[1]; DPPH radical,~560 µM
same,Radical scavenging capacity,[1]; final concn. 10 μM,5.2%
same,Radical scavenging capacity,[1]; final concn. 100 μM,10.8%
same,Radical scavenging capacity,[1]; final concn. 300 μM,29.5%
same,Radical scavenging capacity,[1]; final concn. 1000 μM,61.4%
same,Inhibition rate (%),[2]; listed as Compound of Example 1,83.8%
same,Inhibition rate (%),[2]; listed as the Compound,83.3%
same,Edematization rate (%),"[2]; male ddy mice, PMA on right auricule, 24 hours after causing inflammation, 0.5% solution applied topically, 20 μl per mouse, mean ± S.E. (n = 8)",26.9 ± 6.2 %
